Laboratory results as given in ChEMBL document CHEMBL1140140, “4-[3-(4-cyclopropanecarbonylpiperazine-1-carbonyl)-4-fluorobenzyl]-2H-phthalazin-1-one: a novel bioavailable inhibitor of poly(ADP-ribose) polymerase-1” (J Med Chem, 2008).
≈ marks a conversion by molar mass, not a printed value. Calls of active or inactive are those of the source. The rule behind the calls is not given here.

Experiments:
[1] = target: Poly [ADP-ribose] polymerase 1 (Homo sapiens, UniProt P09874)
[2] = system: HeLa; experiment: Potentiation factor, ratio of IC50 for methyl methanesulfonate to IC50 for methyl methanesulfonate with 200 nM drug for inhibition of human HeLa B cells
[3] = Plasma concentration in mouse at 10 mg/kg, po after 30 mins; assay type: ADME, organism-based; parameters: dose 10 mg/kg, route oral
[4] = Plasma concentration in mouse at 10 mg/kg, po after 60 mins; assay type: ADME, organism-based; parameters: dose 10 mg/kg, route oral
[5] = Half life in rat at 15 mg/kg, iv and po; assay type: ADME, organism-based; parameters: dose 15 mg/kg, route oral; settings: in vivo
[6] = system: Rattus norvegicus; experiment: AUC (0 to infinity) in rat at 15 mg/kg, iv and po; assay type: ADME, organism-based, Plasma; parameters: dose 15 mg/kg, route oral; settings: in vivo
[7] = system: Rattus norvegicus; experiment: Volume of distribution in rat at 15 mg/kg, iv and po; assay type: ADME, organism-based; parameters: dose 15 mg/kg, route oral; settings: in vivo
[8] = Oral bioavailability in rat at 15 mg/kg, po; assay type: ADME, organism-based; settings: in vivo
[9] = Half life in dog at 2.5 mg/kg, iv and 10 mg/kg, po; assay type: ADME, organism-based, Canis lupus familiaris; settings: in vivo
[10] = Clearance in dog at 2.5 mg/kg, iv and 10 mg/kg, po; assay type: ADME, organism-based, Canis lupus familiaris; settings: in vivo
[11] = system: Canis familiaris; experiment: AUC (0 to infinity) in dog at 2.5 mg/kg, iv and 10 mg/kg, po; assay type: ADME, organism-based, Canis lupus familiaris, Plasma; settings: in vivo
[12] = Volume of distribution in dog at 2.5 mg/kg, iv and 10 mg/kg, po; assay type: ADME, organism-based, Canis lupus familiaris; settings: in vivo
[13] = Oral bioavailability in dog at 10 mg/kg, po; assay type: ADME, organism-based, Canis lupus familiaris; settings: in vivo
[14] = system: SW-620; experiment: Potentiation of methyl methanesulfonate-induced growth inhibition of human SW620 cells after 4 days by sulforhodamine B assay; assay type: functional, cell-based
[15] = organism: Homo sapiens; experiment: Cytotoxicity against BRCA1-deficient human […] cells upto 4 uM after 7 to 14 days by clonogenic assay; assay type: functional, cell-based
[16] = system: HCC1937; experiment: Cytotoxicity against BRCA1-deficient human HCC1937 cells upto 4 uM after 7 to 14 days by clonogenic assay; assay type: functional, cell-based
[17] = system: SW-620; experiment: Antitumor activity in human SW620 cells xenografted mouse assessed as days to double the relative tumor volume at 50 mg/kg, po once daily for 5 consecutive days; assay type: functional
[18] = system: Mus musculus; experiment: Toxicity in human SW620 cells xenografted mouse assessed as maximum mean body weight loss after 3 days; assay type: organism-based, SW-620; settings: in vivo, 72 h
[19] = Solubility of compound in 0.1 M phosphate buffer after 24 hrs by HPLC-UV method; assay type: physicochemical

Poly [ADP-ribose] polymerase 1, sequence (P09874 whole entry): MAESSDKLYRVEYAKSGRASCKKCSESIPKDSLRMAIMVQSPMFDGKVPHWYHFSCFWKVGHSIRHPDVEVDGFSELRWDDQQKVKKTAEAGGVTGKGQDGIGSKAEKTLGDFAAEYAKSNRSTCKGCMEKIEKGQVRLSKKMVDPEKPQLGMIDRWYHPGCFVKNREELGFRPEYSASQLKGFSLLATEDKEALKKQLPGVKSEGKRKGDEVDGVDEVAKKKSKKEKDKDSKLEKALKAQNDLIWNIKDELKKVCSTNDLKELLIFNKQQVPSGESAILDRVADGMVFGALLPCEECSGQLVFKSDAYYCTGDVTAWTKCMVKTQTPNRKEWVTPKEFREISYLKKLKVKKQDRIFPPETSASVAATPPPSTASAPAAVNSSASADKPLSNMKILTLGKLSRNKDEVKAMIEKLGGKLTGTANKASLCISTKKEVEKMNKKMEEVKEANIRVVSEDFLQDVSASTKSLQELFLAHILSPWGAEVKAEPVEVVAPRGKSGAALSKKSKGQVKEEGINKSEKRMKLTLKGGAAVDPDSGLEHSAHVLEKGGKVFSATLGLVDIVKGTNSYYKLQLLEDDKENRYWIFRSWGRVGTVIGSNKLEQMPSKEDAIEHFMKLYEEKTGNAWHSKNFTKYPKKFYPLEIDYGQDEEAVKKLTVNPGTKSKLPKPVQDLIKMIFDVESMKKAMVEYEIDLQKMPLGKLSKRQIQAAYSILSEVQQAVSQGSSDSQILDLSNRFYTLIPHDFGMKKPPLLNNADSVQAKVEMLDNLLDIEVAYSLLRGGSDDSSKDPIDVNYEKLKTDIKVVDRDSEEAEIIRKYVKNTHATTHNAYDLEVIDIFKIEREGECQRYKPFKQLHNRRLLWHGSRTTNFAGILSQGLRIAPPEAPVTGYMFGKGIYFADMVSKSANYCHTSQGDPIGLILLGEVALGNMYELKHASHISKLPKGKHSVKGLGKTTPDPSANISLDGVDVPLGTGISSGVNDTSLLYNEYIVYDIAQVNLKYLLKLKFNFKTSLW

SMILES | IC50 [1] | PF50 [2] | further results
CN1CCN(C(=O)c2cc(Cc3n[nH]c(=O)c4ccccc34)ccc2F)CC1 | 13 nM | 2.5 | –
O=C(c1cccc(Cc2n[nH]c(=O)c3ccccc23)c1)N1CCNCC1 | – | 3.7 | –
CCCN1CCN(C(=O)c2cc(Cc3n[nH]c(=O)c4ccccc34)ccc2F)CC1 | 6 nM | 7.3 | –
O=C(c1cc(Cc2n[nH]c(=O)c3ccccc23)ccc1F)N1CCN(C(=O)C2CC2)CC1 [OLAPARIB] | – | 25.8 | concentration at 0.5 h [3]: 230 ng/mL; concentration at 1 h [4]: 590 ng/mL; half-life [5]: 53 min; AUC [6]: 304 µg/min/mL; Vd [7]: 1.18 L/kg; bioavailability [8]: 100%; half-life [9]: 170 min; clearance [10]: 5.4 mL/min/kg; AUC [11]: 511 µg/min/mL; Vd [12]: 1.3 L/kg; bioavailability [13]: 100%; Activity [14]: Dose-dependent effect; Activity [15]: Active; Activity [16]: Active
CC(=O)N1CCN(C(=O)c2cc(Cc3n[nH]c(=O)c4ccccc34)ccc2F)CC1 | 6 nM | 7.97 | –
CCN1CCN(C(=O)c2cc(Cc3n[nH]c(=O)c4ccccc34)ccc2F)CC1 | 6 nM | 7.7 | –
Cn1nnc2c(C(N)=O)ncn2c1=O [TEMOZOLOMIDE] | – | – | Time [17]: 44 days; Activity [18]: 6%
O=C(c1cc(Cc2n[nH]c(=O)c3ccccc23)ccc1F)N1CCCN(CCO)CC1 | – | 18 | –
O=C(c1cc(Cc2n[nH]c(=O)c3ccccc23)ccc1F)N1CCN(C(=O)C2CCOC2)CC1 (configuration not stated) | 2 nM | 29.8 | concentration at 0.5 h [3]: 160 ng/mL; concentration at 1 h [4]: 150 ng/mL
CN1CCN(C(=O)c2cccc(Cc3n[nH]c(=O)c4ccccc34)c2)CC1 | 88 nM | 1.02 | –
O=C(c1cccc(Cc2n[nH]c(=O)c3ccccc23)c1)N1CCCN(C(=O)N2CCOCC2)CC1 | 20 nM | 1.4 | –
O=C(c1cc(Cc2n[nH]c(=O)c3ccccc23)ccc1F)N1CCCNCC1 | – | 12.6 | –
O=C(c1ccccc1)N1CCN(C(=O)c2cc(Cc3n[nH]c(=O)c4ccccc34)ccc2F)CC1 | 6 nM | 8.2 | –
O=C(c1cc(Cc2n[nH]c(=O)c3ccccc23)ccc1F)N1CCN(c2ccccc2)CC1 | – | 5.2 | concentration at 0.5 h [3]: 700 ng/mL; concentration at 1 h [4]: 310 ng/mL
O=C(c1cc(Cc2n[nH]c(=O)c3ccccc23)ccc1F)N1CCCN(C(=O)C2CC2)CC1 | 12 nM | 4.2 | –
CC(=O)N1CCCN(C(=O)c2cc(Cc3n[nH]c(=O)c4ccccc34)ccc2F)CC1 | 12 nM | 3.7 | –
O=C(c1cc(Cc2n[nH]c(=O)c3ccccc23)ccc1F)N1CCN(c2ccccn2)CC1 | 2 nM | >40 | –
O=C(c1cc(Cc2n[nH]c(=O)c3ccccc23)ccc1F)N1CCN(C(=O)C2CCCCC2)CC1 | 15 nM | 11.1 | –
O=C(c1ccccc1)N1CCN(C(=O)c2cccc(Cc3n[nH]c(=O)c4ccccc34)c2)CC1 | 11 nM | 7.2 | –
O=C(c1cc(Cc2n[nH]c(=O)c3ccccc23)ccc1F)N1CCCN(C(=O)N2CCOCC2)CC1 | 8 nM | 2.5 | –

SMILES | IC50 [1] | PF50 [2] | further results
O=C(c1cc(Cc2n[nH]c(=O)c3ccccc23)ccc1F)N1CCN(C(=O)N2CCOCC2)CC1 | – | 8.4 | –
O=C(c1cc(Cc2n[nH]c(=O)c3ccccc23)ccc1F)N1CCNCC1 | 5 nM | 8.6 | –
O=C(c1cccc(Cc2n[nH]c(=O)c3ccccc23)c1)N1CCCN(CCO)CC1 | 18 nM | 5.4 | –
CCS(=O)(=O)N1CCN(C(=O)c2cccc(Cc3n[nH]c(=O)c4ccccc34)c2)CC1 | 12 nM | 4.6 | –
CCC(=O)N1CCN(C(=O)c2cc(Cc3n[nH]c(=O)c4ccccc34)ccc2F)CC1 | 5 nM | 24.4 | concentration at 0.5 h [3]: 670 ng/mL; concentration at 1 h [4]: 300 ng/mL; half-life [5]: 55 min; AUC [6]: 423 µg/min/mL; Vd [7]: 0.91 L/kg; bioavailability [8]: 40%
O=C(c1cccc(Cc2n[nH]c(=O)c3ccccc23)c1)N1CCN(c2ccccn2)CC1 | 10 nM | 24.3 | –
O=C(c1cccc(Cc2n[nH]c(=O)c3ccccc23)c1)N1CCN(c2ncccn2)CC1 | 2 nM | >40 | solubility at 24 h [19]: 1 µg/mL (≈ 2.34 µM); concentration at 0.5 h [3]: 300 ng/mL; concentration at 1 h [4]: 140 ng/mL
O=C(c1cccc(Cc2n[nH]c(=O)c3ccccc23)c1)N1CCN(CCO)CC1 | 39 nM | 1.8 | –
CCS(=O)(=O)N1CCN(C(=O)c2cc(Cc3n[nH]c(=O)c4ccccc34)ccc2F)CC1 | 8 nM | 4.9 | –
CCS(=O)(=O)N1CCCN(C(=O)c2cccc(Cc3n[nH]c(=O)c4ccccc34)c2)CC1 | 23 nM | 1.4 | –
O=C(c1cc(Cc2n[nH]c(=O)c3ccccc23)ccc1F)N1CCN(CC2CC2)CC1 | – | 6.5 | –
O=C(c1cccc(Cc2n[nH]c(=O)c3ccccc23)c1)N1CCN(c2ccccc2)CC1 | 51 nM | – | –
O=C(c1cccc(Cc2n[nH]c(=O)c3ccccc23)c1)N1CCCN(Cc2ccccc2)CC1 | 18 nM | 2.2 | –
O=C(c1cc(Cc2n[nH]c(=O)c3ccccc23)ccc1F)N1CCN(c2ncccn2)CC1 | 3 nM | >40 | –
O=C(c1cc(Cc2n[nH]c(=O)c3ccccc23)ccc1F)N1CCN(C(=O)C2CCCC2)CC1 | 2 nM | 11.8 | –
CCCCN1CCN(C(=O)c2cc(Cc3n[nH]c(=O)c4ccccc34)ccc2F)CC1 | 5 nM | 6.4 | –
O=C(c1cc(Cc2n[nH]c(=O)c3ccccc23)ccc1F)N1CCN(C(=O)C2CCCO2)CC1 (configuration not stated) | – | 39.4 | solubility at 24 h [19]: 980 µg/mL (≈ 2110 µM)
O=C(c1cc(Cc2n[nH]c(=O)c3ccccc23)ccc1F)N1CCN(CCO)CC1 | 12 nM | 3.3 | –
O=C(c1cccc(Cc2n[nH]c(=O)c3ccccc23)c1)N1CCN(C(=O)N2CCOCC2)CC1 | 8 nM | 2.3 | –
